Tested on: human prostate cancer PC-3 cells
Experiment: Cell viability (MTT) assay, cytotoxic activity toward PC-3 cells
Format: cell-based
Settings: Homo sapiens, PC-3 cells, 48 h
Protocol: (§1) The human cancer PC-3 cells were purchased from ATCC (Manassas, VA, USA). The rat cardiomyocytes H9c2 cells were kindly provided by Prof. Dr. Gunhild von Amsberg from Martini-Klinik Prostate Cancer Center, University Hospital Hamburg-Eppendorf, Hamburg, Germany.
(§2) The PC-3 and H9c2 cells were seeded at concentrations of 5 × 10^3 cell/well and 3 × 10^3 cell/well, respectively, and the experiments were started after 24 h. The compounds at concentrations up to 100 µM were added into the wells for 48 h, and the viability of the cells was measured by an MTT (3-(4,5-dimethylthiazol-2-yl)-2,5-diphenyltetrazolium bromide) assay, which was performed according to the manufacturer’s instructions (Sigma-Aldrich, Munich, Germany). All compounds were diisolved with DMSO so that the final concentration of DMSO in the cell culture was not more than 1%. Moreover, DMSO was used as a control.
(§3) The results were presented as a percent of the control data, and the concentration of the cell viability inhibition on 50% (IC50) was calculated.

Row | Compound | IC50 [µM]
1 | C[C@@H]1C/C=C/C(=O)C/C=C/[C@H](O)CC(=O)O1 [Compound 4, balticolid] | 38.9 ± 1.9
2 | C[C@@H]1C/C=C/[C@@H](O)C/C=C/[C@@H](O)CC(=O)O1 [Compound 5, dendrodolide G] | > 100
3 | COC1=C(OC)[C@@H](O)[C@](C)(O)[C@@H](C)C1=O [Compound 1, lopouzanone A] | > 100
4 | COC1=C(OC)C(O)C(C)(O)C(C)C1=O (centres unmarked) [Compound 2, lopouzanone B] | > 100
5 | C/C=C/C=C/C=C/[C@@H]1C[C@@H](O)[C@H](O)[C@H](O)[C@@H]1CO [Compound 8, dendrodochol B] | > 100
6 | C/C=C/C=C/C=C/[C@@H]1C[C@@H](OC(C)=O)[C@H](O)[C@H](O)[C@@H]1CO [Compound 9, 1-O-acetyl dendrodochol B] | > 100
7 | COC1=C(OC)C(=O)C(C)C(C)C1=O (centres unmarked) [Compound 3, gliorosein] | 58.9 ± 1.5

Same assay, conditions: concentration of 100 µM, 48 h

Row | Compound | decrease of PC-3 cell viability
8 | C[C@@H]1C/C=C/[C@@H](O)C/C=C/[C@@H](O)CC(=O)O1 [Compound 5, dendrodolide G] | 27–32%
9 | COC1=C(OC)[C@@H](O)[C@](C)(O)[C@@H](C)C1=O [Compound 1, lopouzanone A] | 27–32%
10 | COC1=C(OC)C(O)C(C)(O)C(C)C1=O (centres unmarked) [Compound 2, lopouzanone B] | 27–32%
11 | C/C=C/C=C/C=C/[C@@H]1C[C@@H](O)[C@H](O)[C@H](O)[C@@H]1CO [Compound 8, dendrodochol B] | 27–32%
12 | C/C=C/C=C/C=C/[C@@H]1C[C@@H](OC(C)=O)[C@H](O)[C@H](O)[C@@H]1CO [Compound 9, 1-O-acetyl dendrodochol B] | 27–32%

Tested on: CoCl2-treated H9c2 cells
Experiment: Cardioprotective activity in CoCl2-mimic hypoxia
Format: cell-based, rat
Settings: CoCl2 500 µM; MTT
Protocol: The H9c2 cells were treated with a dH2O-solution of CoCl2 at a concentration of 500 µM for 2 h. Then, compounds at a concentration of 10 µM were added for 46 h. The viability of the H9c2 cells was measured by an MTT assay.

Row | Compound | decrease of viability of H9c2 cells by CoCl2 treatment [%]
13 | [Cl-].[Cl-].[Co+2] [CoCl2, cobalt chloride (II), reference compound] | 54.1

Same assay, conditions: Rattus norvegicus, H9c2; compound at 10 µM for 46 h after CoCl2 500 µM for 2 h; MTT; read-out: increase of viability of CoCl2-treated H9c2 cells

Row | Compound | viability at 10 µM [%]
14 | COC1=C(OC)C(=O)C(C)C(C)C1=O (centres unmarked) [Compound 3, gliorosein] | 23.5

Tested on: not listed separately
Experiment: DPPH scavenging assay
Settings: compounds at 100 µM; 30 min; absorbance 520 nm; mean ± SEM
Protocol: The compounds were dissolved in DMSO, and the solutions (120 µL) were dispensed into wells of a 96-well microplate. In all, 30 µL of the DPPH (Sigma-Aldrich, Steinheim, Germany) solution in MeOH (1.5 × 10^−4 M) was added to each well. The concentrations of the compounds in mixture were 10 and 100 µM. Pure DMSO was used as a control. The ascorbic acid was used as a positive control. The mixture was shaken and left to stand for 30 min, and the absorbance of the resulting solution was measured at 520 nm with a microplate reader MultiscanFC (ThermoLabsystems Inc., Beverly, MA, USA). The radical scavenging activity of all compounds at 100 µM was presented as a percent of the DMSO data.

Row | Compound | DPPH Radicals, % of Control
15 | C[C@@H]1C/C=C/C(=O)C/C=C/[C@H](O)CC(=O)O1 [Compound 4, balticolid] | 98.6 ± 3.4 % of Control
16 | O=C1O[C@H]([C@@H](O)CO)C(O)=C1O [Ascorbic acid, ascorbic acid, reference compound] | 10.5 ± 3.2 % of Control
17 | C[C@@H]1C/C=C/[C@@H](O)C/C=C/[C@@H](O)CC(=O)O1 [Compound 5, dendrodolide G] | 98.9 ± 1.4 % of Control
18 | COC1=C(OC)[C@@H](O)[C@](C)(O)[C@@H](C)C1=O [Compound 1, lopouzanone A] | 93.8 ± 0.5 % of Control
19 | COC1=C(OC)C(O)C(C)(O)C(C)C1=O (centres unmarked) [Compound 2, lopouzanone B] | 100.2 ± 1.0 % of Control
20 | C/C=C/C=C/C=C/[C@@H]1C[C@@H](O)[C@H](O)[C@H](O)[C@@H]1CO [Compound 8, dendrodochol B] | 99.4 ± 3.3 % of Control
21 | C/C=C/C=C/C=C/[C@@H]1C[C@@H](OC(C)=O)[C@H](O)[C@H](O)[C@@H]1CO [Compound 9, 1-O-acetyl dendrodochol B] | 102.7 ± 1.8 % of Control
22 | COC1=C(OC)C(=O)C(C)C(C)C1=O (centres unmarked) [Compound 3, gliorosein] | 86.1 ± 1.8 % of Control

Same assay, conditions: concentration of 100 µM

Row | Compound | decrease of the amount of DPPH radical [%]
23 | COC1=C(OC)C(=O)C(C)C(C)C1=O (centres unmarked) [Compound 3, gliorosein] | 13.9

Tested on: rat normal cardiomyocytes H9c2
Experiment: Cell viability (MTT) assay, cytotoxic activity toward H9c2 cells
Format: cell-based
Settings: 48 h
Protocol: as §1, §2, §3

Row | Compound | IC50 [µM]
24 | C[C@@H]1C/C=C/C(=O)C/C=C/[C@H](O)CC(=O)O1 [Compound 4, balticolid] | > 100
25 | C[C@@H]1C/C=C/[C@@H](O)C/C=C/[C@@H](O)CC(=O)O1 [Compound 5, dendrodolide G] | > 100
26 | COC1=C(OC)[C@@H](O)[C@](C)(O)[C@@H](C)C1=O [Compound 1, lopouzanone A] | > 100
27 | COC1=C(OC)C(O)C(C)(O)C(C)C1=O (centres unmarked) [Compound 2, lopouzanone B] | > 100
28 | C/C=C/C=C/C=C/[C@@H]1C[C@@H](O)[C@H](O)[C@H](O)[C@@H]1CO [Compound 8, dendrodochol B] | > 100
29 | C/C=C/C=C/C=C/[C@@H]1C[C@@H](OC(C)=O)[C@H](O)[C@H](O)[C@@H]1CO [Compound 9, 1-O-acetyl dendrodochol B] | > 100
30 | COC1=C(OC)C(=O)C(C)C(C)C1=O (centres unmarked) [Compound 3, gliorosein] | > 100

Tested on: rotenone-treated H9c2 cells
Experiment: Cardioprotective activity against rotenone-induced toxicity
Format: cell-based, rat
Settings: Rattus norvegicus, H9c2, read-out: increase of viability of rotenone-treated H9c2 cells
Protocol: The H9c2 cells were treated with rotenone (0.1% DMSO solution) at a concentration of 10 µM for 1 h. Then, compounds at a concentration of 10 µM were added for 23 h. The viability of the H9c2 cells was measured by an MTT assay.

Row | Compound | viability at 10 µM [%]
31 | COC1=C(OC)C(=O)C(C)C(C)C1=O (centres unmarked) [Compound 3, gliorosein] | 16.6

Same assay, conditions: rotenone 10 µM; MTT

Row | Compound | decrease of viability of H9c2 cells by rotenone treatment [%]
32 | C=C(C)[C@H]1Cc2c(ccc3c2O[C@@H]2COc4cc(OC)c(OC)cc4[C@@H]2C3=O)O1 [rotenone, reference compound] | 32.1

From paper PMC9655818, “Cytoprotective Polyketides from Sponge-Derived Fungus Lopadostoma pouzarii” (Molecules, 2022)
